Data as given in patent publication US8329179B2, “Death domain containing receptor 4 antibodies and methods” (Human Genome Sciences, Inc., priority 1997, dated 2012).
Entries after “also recorded” stand apart in the source; their conditions may differ. Where a SMILES comes first, the peptide text is derived from it. The star is where a group is joined. Cbz = O=C(OCc1ccccc1)*; CH2F = FC*

How the values were obtained:
[1] = tested on: DR4-induced apoptosis in MCF7 human breast carcinoma cells and 293 human embryonic kidney cells; test: DR4-induced apoptosis cell death assay (transient transfection, X-Gal staining); assay type: cell-based; details: z-VAD-fmk added at 10 μM, 5 hrs after transfection; cells stained 32 hours following transfection
Method: Overexpression of Fas/APO-1 and TNFR-1 in mammalian cells mimics receptor activation (M. Muzio, et al., Cell 85, 817-827 (1996); M. P. Boldin, et al, Cell 85, 803-815 (1996)). Thus, this system was utilized to study the functional role of DR4. Transient expression of DR4 in MCF7 human breast carcinoma cells and 293 human embryonic kidney cells induced rapid apoptosis.
Cell death assays are performed essentially as previously described (A. M. Chinnaiyan, et al., Cell 81, 505-12 (1995); M. P. Boldin, et al, J Biol Chem 270, 7795-8 (1995); F. C. Kischkel, et al., EMBO 14, 5579-5588 (1995); A. M. Chinnaiyan, et al., J Biol Chem 271, 4961-4965 (1996)). Briefly, MCF-7 human breast carcinoma clonal cell lines stably transfected with either vector alone or a CrmA expression construct (M. Tewari, et al., J Biol Chem 270, 3255-60 (1995)), are transiently transfected with pCMV-DR4-galactosidase (or pCMV-DR4-galactosidase (lacking the death domain)) in the presence of a ten-fold excess of pcDNA3 expression constructs encoding the indicated proteins using lipofectamine (GIBCO-BRL). 293 cells are likewise transfected using the CaPO4 method. The ICE family inhibitor z-VAD-fmk (Enzyme Systems Products, Dublin, Calif.) is added to the cells at a concentration of 10 μM, 5 hrs after transfection. […]

DR4-induced apoptosis = test: Cell death assay: DR4-induced apoptosis in cells transiently transfected with a DR4 expressing construct, with death protease inhibitors; assay type: cell-based, human; details: FIG. 5C
[2] = tested on: TRAIL-induced apoptosis in MCF7 cells; test: Blocking of TRAIL-induced apoptosis in MCF7 cells by receptor-Fc fusions; assay type: cell-based, human; details: FIG. 6A

| Compound | DR4-induced apoptosis [1] | Blocking of DR4-induced apoptosis (DR4-induced apoptosis) | Blocking of DR4-induced apoptosis (DR4-induced apoptosis; listed as z-VAD-fink) | Blocking of the ability of TRAIL to induce apoptosis [2] |
| --- | --- | --- | --- | --- |
| COC(=O)C[C@H](NC(=O)[C@H](C)NC(=O)[C@@H](NC(=O)OCc1ccccc1)C(C)C)C(=O)CF [z-VAD-fmk] (Cbz-Val-Ala-Asp(OMe)-CH2F) | blocked | inhibit the apoptotic action of DR4; also recorded: efficiently blocked | blocked |  |
| CD95-Fc: extracellular domain of CD-95 expressed as Fc fusion |  |  |  | not influenced |
